Measurements published in publication PMC10527105, “Chirality Matters: Fine-Tuning of Novel Monoamine Reuptake Inhibitors Selectivity through Manipulation of Stereochemistry” (Biomolecules, 2023).
Values joined by “and” are separate entries in the source; they are usually repeats but may differ in a detail not shown here. Equal values may be shown once. Read-outs that look alike come from different tables or passages of the source.

Columns and labels:
Assay type in all cases: cell-based
[1] = target: T1, human dopamine transporter/SLC6A3 (DAT) (Homo sapiens, UniProt Q01959); assay: Cellular uptake experiments: [3H]-dopamine reuptake inhibition in transporter-expressing HEK293 cells; conditions: cells stably expressing DAT, [3H]-dopamine 1 µM, screening cut-off 50 µM
T1 construct: expressed in transfected cells; host or cells: HEK293
T1 sequence (Q01959 whole entry): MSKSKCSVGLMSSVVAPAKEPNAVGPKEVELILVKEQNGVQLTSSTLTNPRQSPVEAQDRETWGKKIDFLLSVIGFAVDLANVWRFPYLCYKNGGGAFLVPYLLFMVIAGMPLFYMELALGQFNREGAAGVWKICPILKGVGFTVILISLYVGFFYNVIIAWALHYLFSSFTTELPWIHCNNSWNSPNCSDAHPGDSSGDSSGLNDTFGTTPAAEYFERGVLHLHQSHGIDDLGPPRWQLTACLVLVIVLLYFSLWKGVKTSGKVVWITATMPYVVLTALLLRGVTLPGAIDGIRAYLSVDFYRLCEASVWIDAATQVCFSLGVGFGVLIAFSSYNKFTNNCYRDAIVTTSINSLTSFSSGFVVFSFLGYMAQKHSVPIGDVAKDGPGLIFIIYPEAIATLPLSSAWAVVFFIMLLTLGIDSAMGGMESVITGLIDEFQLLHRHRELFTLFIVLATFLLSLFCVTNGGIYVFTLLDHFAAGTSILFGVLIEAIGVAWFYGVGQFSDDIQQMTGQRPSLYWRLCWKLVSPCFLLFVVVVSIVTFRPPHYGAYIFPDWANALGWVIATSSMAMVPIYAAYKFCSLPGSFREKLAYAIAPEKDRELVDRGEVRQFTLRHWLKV
Description: (§1) Cell culture. Human embryonic kidney (HEK) 293 or SK-N-MC (human neuroblastoma) cells were grown in minimum essential medium with Earle’s salts and L-glutamine, 10% heat-inactivated fetal bovine serum, and 50 mg/L gentamicin. Cells were grown in 100- or 60-mm diameter tissue culture dishes (polystyrene, Falcon) at 37 °C under an atmosphere of 5% CO2/95% air. The human dopamine transporter/SLC6A3 (DAT), noradrenaline transporter/SLC6A2 (NET), or human serotonin transporter/SLC6A4 (SERT) cDNA was stably expressed using methods as described previously.
(§2) Cellular uptake experiments. The transporter-expressing HEK293 cells were seeded in poly-D-lysine-coated 24-well plates (1 × 10^5 cells/well) and, one day later, each well was washed with 0.5 mL uptake buffer and incubated with 0.5 mL buffer containing various concentrations of the drugs. Uptake was started by the addition of [^3H]-dopamine, [^3H]-noradrenaline, or [^3H]-serotonin at a final concentration of 1 µM (specific activity 0.14 Ci/mmol) after 5 min of preincubation. After incubation for 2.5 min (SERT-cells: 5 min) at 25 °C, it was stopped by aspirating the uptake buffer and washing each well twice with 1 mL ice-cold buffer. Nonspecific uptake was determined in the presence of 10 µM mazindol (DAT- and NET-cells) or 10 µM clomipramine (SERT-cells). The radioactivity remaining in each well was determined by incubating with 0.4 mL 1% sodium dodecyl sulphate and transferring this solution into scintillation vials containing 3 mL of scintillation cocktail (Ultima Gold MV, Packard, Dovners Grove, IL, USA). The uptake buffer consisted of (mmol/L): 4 Tris–HCl; 6.25 4-(2-hydroxyethyl)-1-piperazineethanesulfonic acid (HEPES); 120 NaCl; 5 KCl; 1.2 CaCl2; 1.2 MgSO4; 5.6 D-glucose; 0.5 ascorbic acid; pH 7.1.

[2] = target: T2, noradrenaline transporter/SLC6A2 (NET) (Homo sapiens, UniProt P23975); assay: Cellular uptake experiments: [3H]-noradrenaline reuptake inhibition in transporter-expressing HEK293 cells
T2 construct: expressed in transfected cells; host or cells: HEK293
T2 sequence (P23975 whole entry): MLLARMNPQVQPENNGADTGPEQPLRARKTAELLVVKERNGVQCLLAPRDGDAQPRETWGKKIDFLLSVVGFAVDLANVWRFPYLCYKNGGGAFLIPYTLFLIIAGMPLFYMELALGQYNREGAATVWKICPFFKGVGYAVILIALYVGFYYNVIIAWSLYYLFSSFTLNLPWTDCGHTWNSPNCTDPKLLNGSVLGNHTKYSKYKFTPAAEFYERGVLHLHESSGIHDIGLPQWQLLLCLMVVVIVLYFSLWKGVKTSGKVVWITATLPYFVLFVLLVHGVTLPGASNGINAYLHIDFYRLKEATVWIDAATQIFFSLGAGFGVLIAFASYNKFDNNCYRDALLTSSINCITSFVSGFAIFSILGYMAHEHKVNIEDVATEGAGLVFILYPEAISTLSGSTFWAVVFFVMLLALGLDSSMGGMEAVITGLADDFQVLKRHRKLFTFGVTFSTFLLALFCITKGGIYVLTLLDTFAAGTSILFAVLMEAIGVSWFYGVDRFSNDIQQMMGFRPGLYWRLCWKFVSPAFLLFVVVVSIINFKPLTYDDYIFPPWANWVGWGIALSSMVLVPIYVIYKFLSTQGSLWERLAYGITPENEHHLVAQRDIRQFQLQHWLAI
Description: as §1, §2

[3] = target: T3, human serotonin transporter/SLC6A4 (SERT) (Homo sapiens, UniProt P31645); assay: Cellular uptake experiments: [3H]-serotonin reuptake inhibition in transporter-expressing HEK293 cells
T3 construct: expressed in transfected cells; host or cells: HEK293
T3 sequence (P31645 whole entry): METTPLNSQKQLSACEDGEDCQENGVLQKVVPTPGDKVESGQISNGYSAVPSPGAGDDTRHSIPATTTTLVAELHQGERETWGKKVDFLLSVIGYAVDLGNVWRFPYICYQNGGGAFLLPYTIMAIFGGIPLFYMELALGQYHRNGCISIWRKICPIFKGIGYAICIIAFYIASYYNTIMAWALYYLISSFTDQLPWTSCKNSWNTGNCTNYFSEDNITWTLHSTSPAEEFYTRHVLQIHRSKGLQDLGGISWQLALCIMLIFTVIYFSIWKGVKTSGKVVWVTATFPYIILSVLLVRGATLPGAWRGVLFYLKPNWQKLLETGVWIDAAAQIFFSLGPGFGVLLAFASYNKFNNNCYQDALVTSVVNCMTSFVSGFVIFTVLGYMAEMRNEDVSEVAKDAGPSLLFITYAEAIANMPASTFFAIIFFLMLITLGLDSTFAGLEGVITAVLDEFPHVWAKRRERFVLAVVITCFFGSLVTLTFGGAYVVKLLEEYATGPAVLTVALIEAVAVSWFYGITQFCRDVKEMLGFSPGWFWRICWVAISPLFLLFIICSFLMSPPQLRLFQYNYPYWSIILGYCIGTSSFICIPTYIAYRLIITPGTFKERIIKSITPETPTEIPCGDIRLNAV
Description: as §1, §2

[4] = read-out: Reuptake Inhibition (IC50 ± SE, µM) DAT
[5] = cells stably expressing NET, [3H]-noradrenaline 1 µM, screening cut-off 50 µM, read-out: Reuptake Inhibition (IC50 ± SE, µM) NET
[6] = cells stably expressing SERT; [3H]-serotonin 1 µM; screening cut-off 50 µM; read-out: Reuptake Inhibition (IC50 ± SE, µM) SERT
[7] = Reuptake Inhibition (IC50 ± SE, µM) DAT
[8] = Reuptake Inhibition (IC50 ± SE, µM) NET, cells stably expressing NET, [3H]-noradrenaline 1 µM, screening cut-off 50 µM
[9] = Reuptake Inhibition (IC50 ± SE, µM) SERT, cells stably expressing SERT; [3H]-serotonin 1 µM; screening cut-off 50 µM
[10] = read-out: Reuptake Inhibition (IC50 ± SE, µM) NET, cells stably expressing NET, [3H]-noradrenaline 1 µM, screening cut-off 50 µM
[11] = read-out: Reuptake Inhibition (IC50 ± SE, µM) SERT; cells stably expressing SERT; [3H]-serotonin 1 µM; screening cut-off 50 µM

[O-][S@@+](Cc1cccs1)[C@@H](c1ccccc1)c1ccccc1F [Compound 6a, (S,S)-2-((((2-fluorophenyl)(phenyl)methyl)sulfinyl)methyl)thiophene]
IC50 [1, 4]: 13.3 ± 1.6 µM
IC50 [2, 5]: > 50 µM
IC50 [3, 6]: > 50 µM

COc1ccccc1[C@H](c1ccccc1)[S@@+]([O-])Cc1cccs1 [Compound 6r, (S,S)-2-((((2-methoxyphenyl)(phenyl)methyl)sulfinyl)methyl)thiophene]
IC50 [1, 7]: > 50 µM
IC50 [2, 8]: > 50 µM
IC50 [3, 9]: > 50 µM

[O-][S@@+](Cc1cccs1)[C@H](c1ccccc1)c1ccc(I)cc1 [Compound 5k, (S,R)-2-((((4-iodophenyl)(phenyl)methyl)sulfinyl)methyl)thiophene]
IC50 [1, 7]: 5.1 ± 0.6 µM
IC50 [2, 8]: > 50 µM
IC50 [3, 9]: > 50 µM

[O-][S+](Cc1cccs1)C(c1ccccc1)c1ccccc1I (stereo not drawn) [Compound 6i, 2-((((2-iodophenyl)(phenyl)methyl)sulfinyl)methyl)thiophene]
IC50 [1, 7]: 20.3 ± 0.6 µM
IC50 [2, 10]: > 50 µM
IC50 [3, 11]: > 50 µM

COc1ccccc1[C@@H](c1ccccc1)[S@+]([O-])Cc1cccs1 [Compound 5r, (R,R)-2-((((2-methoxyphenyl)(phenyl)methyl)sulfinyl)methyl)thiophene]
IC50 [1, 7]: 31 ± 8 µM
IC50 [2, 8]: > 50 µM
IC50 [3, 9]: > 50 µM

COc1ccc([C@@H](c2ccccc2)[S@+]([O-])Cc2cccs2)cc1 [Compound 6t, (R,R)-2-((((4-methoxyphenyl)(phenyl)methyl)sulfinyl)methyl)thiophene]
IC50 [1, 7]: 17 ± 3 µM
IC50 [2, 8]: > 50 µM
IC50 [3, 9]: 11 ± 3 µM

[O-][S+](Cc1cccs1)C(c1ccccc1)c1ccc(C(F)(F)F)cc1 (stereo not drawn) [Compound 7q, 2-(((phenyl(4-(trifluoromethyl)phenyl)methyl)sulfinyl)methyl)thiophene]
IC50 [1, 7]: 24 ± 1 µM
IC50 [2, 10]: > 50 µM
IC50 [3, 9]: > 50 µM

COc1ccccc1C(c1ccccc1)[S+]([O-])Cc1cccs1 [Compound 8r, (S,S)-2-((((2-methoxyphenyl)(phenyl)methyl)sulfinyl)methyl)thiophene]
IC50 [1, 7]: > 50 µM
IC50 [2, 8]: > 50 µM
IC50 [3, 9]: > 50 µM

[O-][S+](Cc1cccs1)C(c1ccccc1)c1ccccc1C(F)(F)F (stereo not drawn) [Compound 6o, 2-(((phenyl(2-(trifluoromethyl)phenyl)methyl)sulfinyl)methyl)thiophene]
IC50 [1, 7]: > 50 µM
IC50 [2, 8]: > 50 µM
IC50 [3, 11]: > 50 µM

[O-][S+](Cc1cccs1)C(c1ccccc1)c1ccccc1Br (stereo not drawn) [Compound 8g, 2-((((2-bromophenyl)(phenyl)methyl)sulfinyl)methyl)thiophene]
IC50 [1, 7]: 5.06 ± 0.31 µM
IC50 [2, 10]: > 50 µM
IC50 [3, 11]: > 50 µM

[O-][S+](Cc1cccs1)C(c1ccccc1)c1ccccc1Br (stereo not drawn) [Compound 6g, 2-((((2-bromophenyl)(phenyl)methyl)sulfinyl)methyl)thiophene]
IC50 [1, 7]: 12.1 ± 1 µM
IC50 [2, 10]: > 50 µM
IC50 [3, 11]: > 50 µM

[O-][S@@+](Cc1cccs1)[C@@H](c1ccccc1)c1ccccc1Cl [Compound 6d, (S,S)-2-((((2-chlorophenyl)(phenyl)methyl)sulfinyl)methyl)thiophene]
IC50 [1, 4]: 14.4 ± 2.4 µM
IC50 [2, 5]: > 50 µM
IC50 [3, 6]: > 50 µM

Cc1ccccc1C(c1ccccc1)[S+]([O-])Cc1cccs1 (stereo not drawn) [Compound 7l, 2-(((phenyl(o-tolyl)methyl)sulfinyl)methyl)thiophene]
IC50 [1, 4]: 3.8 ± 0.5 µM
IC50 [2, 5]: > 50 µM
IC50 [3, 6]: > 50 µM

[O-][S@+](Cc1cccs1)[C@H](c1ccccc1)c1ccc(I)cc1 [Compound 8k, (R,R)-2-((((4-iodophenyl)(phenyl)methyl)sulfinyl)methyl)thiophene]
IC50 [1, 7]: 2.6 ± 0.1 µM
IC50 [2, 8]: > 50 µM
IC50 [3, 9]: > 50 µM

[O-][S+](Cc1cccs1)C(c1ccccc1)c1ccccc1C(F)(F)F (stereo not drawn) [Compound 7o, 2-(((phenyl(2-(trifluoromethyl)phenyl)methyl)sulfinyl)methyl)thiophene]
IC50 [1, 7]: > 50 µM
IC50 [2, 8]: > 50 µM
IC50 [3, 11]: > 50 µM

[O-][S+](Cc1cccs1)C(c1ccccc1)c1cccc(C(F)(F)F)c1 (stereo not drawn) [Compound 7p, 2-(((phenyl(3-(trifluoromethyl)phenyl)methyl)sulfinyl)methyl)thiophene]
IC50 [1, 7]: 10 ± 1 µM
IC50 [2, 10]: > 50 µM
IC50 [3, 9]: > 50 µM

[O-][S+](Cc1cccs1)C(c1ccccc1)c1ccccc1C(F)(F)F (stereo not drawn) [Compound 8o, 2-(((phenyl(2-(trifluoromethyl)phenyl)methyl)sulfinyl)methyl)thiophene]
IC50 [1, 7]: 8.9 ± 0.7 µM
IC50 [2, 8]: > 50 µM
IC50 [3, 11]: > 50 µM

[O-][S+](Cc1cccs1)C(c1ccccc1)c1cccc(C(F)(F)F)c1 (stereo not drawn) [Compound 8p, 2-(((phenyl(3-(trifluoromethyl)phenyl)methyl)sulfinyl)methyl)thiophene]
IC50 [1, 7]: 6.2 ± 0.6 µM
IC50 [2, 10]: > 50 µM
IC50 [3, 9]: 31 ± 5 µM

COc1ccc([C@@H](c2ccccc2)[S@@+]([O-])Cc2cccs2)cc1 [Compound 7t, (S,R)-2-((((4-methoxyphenyl)(phenyl)methyl)sulfinyl)methyl)thiophene]
IC50 [1, 7]: 15 ± 2 µM
IC50 [2, 8]: > 50 µM
IC50 [3, 9]: > 50 µM

Cc1ccc([C@@H](c2ccccc2)[S@+]([O-])Cc2cccs2)cc1 [Compound 8n, (R,R)-2-(((phenyl(p-tolyl)methyl)sulfinyl)methyl)thiophene]
IC50 [1, 4]: 4 µM and 4.01 µM
IC50 [2, 8]: > 50 µM
IC50 [3, 6]: 25 ± 4 µM

[O-][S+](Cc1cccs1)C(c1ccccc1)c1ccccc1C(F)(F)F (stereo not drawn) [Compound 5o, 2-(((phenyl(2-(trifluoromethyl)phenyl)methyl)sulfinyl)methyl)thiophene]
IC50 [1, 7]: > 50 µM
IC50 [2, 8]: 25 ± 1 µM
IC50 [3, 9]: > 50 µM

COc1ccc([C@H](c2ccccc2)[S@@+]([O-])Cc2cccs2)cc1 [Compound 5t, (S,S)-2-((((4-methoxyphenyl)(phenyl)methyl)sulfinyl)methyl)thiophene]
IC50 [1, 7]: 16 ± 6 µM
IC50 [2, 8]: > 50 µM
IC50 [3, 9]: > 50 µM

[O-][S+](Cc1cccs1)C(c1ccccc1)c1ccc(F)cc1 (stereo not drawn) [Compound 5c, 2-((((4-fluorophenyl)(phenyl)methyl)sulfinyl)methyl)thiophene]
IC50 [1, 4]: 7.8 ± 0.7 µM
IC50 [2, 5]: > 50 µM
IC50 [3, 6]: > 50 µM

[O-][S@+](Cc1cccs1)[C@@H](c1ccccc1)c1cccc(Br)c1 [Compound 6h, (R,S)-2-((((3-bromophenyl)(phenyl)methyl)sulfinyl)methyl)thiophene]
IC50 [1, 7]: 15 ± 1 µM
IC50 [2]: > 50 µM
IC50 [3, 9]: > 50 µM

Cc1cccc([C@@H](c2ccccc2)[S@+]([O-])Cc2cccs2)c1 [Compound 8m, (R,R)-2-(((phenyl(m-tolyl)methyl)sulfinyl)methyl)thiophene]
IC50 [1, 7]: 1.56 ± 0.25 µM
IC50 [2, 8]: > 50 µM
IC50 [3, 9]: > 50 µM

Cc1ccc(C(c2ccccc2)[S+]([O-])Cc2cccs2)cc1 (stereo not drawn) [Compound 5n, 2-(((phenyl(p-tolyl)methyl)sulfinyl)methyl)thiophene]
IC50 [1, 4]: 3.97 ± 0.21 µM
IC50 [2, 8]: > 50 µM
IC50 [3, 6]: > 50 µM

[O-][S@+](Cc1cccs1)[C@@H](c1ccccc1)c1ccc(I)cc1 [Compound 6k, (R,S)-2-((((4-iodophenyl)(phenyl)methyl)sulfinyl)methyl)thiophene]
IC50 [1, 7]: 1.1 ± 0.3 µM
IC50 [2, 8]: > 50 µM
IC50 [3, 9]: 3.8 ± 0.5 µM

[O-][S@+](Cc1cccs1)[C@@H](c1ccccc1)c1ccc(Cl)cc1 [Compound 6f, (R,S)-2-((((4-chlorophenyl)(phenyl)methyl)sulfinyl)methyl)thiophene]
IC50 [1, 7]: 46 ± 1 µM
IC50 [2, 8]: > 50 µM
IC50 [3, 9]: > 50 µM

[O-][S@@+](Cc1cccs1)[C@@H](c1ccccc1)c1ccc(Cl)cc1 [Compound 7f, (S,S)-2-((((4-chlorophenyl)(phenyl)methyl)sulfinyl)methyl)thiophene]
IC50 [1, 7]: 4 ± 1 µM
IC50 [2, 8]: > 50 µM
IC50 [3, 9]: > 50 µM

[O-][S@+](Cc1cccs1)[C@@H](c1ccccc1)c1cccc(Cl)c1 [Compound 6e, (R,S)-2-((((3-chlorophenyl)(phenyl)methyl)sulfinyl)methyl)thiophene]
IC50 [1, 7]: 14.1 ± 0.5 µM
IC50 [2, 8]: > 50 µM
IC50 [3, 9]: > 50 µM
